Reference: ChEMBL document CHEMBL1201862, “PubChem BioAssay data set” (2004)
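Dose response: 5 concentrations. Exposure: 48 h. Format: 96-well plates. Endpoint: linear interpolation; highest concentration if not reached. GI50 is the concentration that inhibits growth by half.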 Active and inactive are the calls of the source. No stated cut-off is given here; in the data, active = GI50 up to about 1.1 µM and inactive = higher.

Key:
Experiment in all cases: NCI-60 cell line screen, 48 h
BT-549 = tested on: BT-549
CAKI-1 = tested on: CAKI-1
EKVX = tested on: EKVX
HCT-116 = tested on: HCT-116
HOP-92 = tested on: HOP-92
K562 = tested on: K562
MDA-MB-231 = tested on: MDA-MB-231
MDA-N = tested on: MDA-N
MOLT-4 = tested on: MOLT-4
NCI-H23 = tested on: NCI-H23
NCI/ADR-RES = tested on: NCI/ADR-RES
PC-3 = tested on: PC-3
SF-539 = tested on: SF-539
SK-MEL-28 = tested on: SK-MEL-28
SK-OV-3 = tested on: SK-OV-3
SNB-75 = tested on: SNB-75
SR = tested on: SR
T47D = tested on: T47D
U-251 = tested on: U-251

Measured: GI50

O=C(O)CSc1ccn(Cc2ccccc2)c1
inactive: BT-549 > 100 µM | CAKI-1 > 100 µM | EKVX > 100 µM | HCT-116 > 100 µM | HOP-92 > 100 µM | K562 > 100 µM | MDA-MB-231 > 100 µM | MDA-N > 100 µM | MOLT-4 > 100 µM | NCI-H23 > 100 µM | NCI/ADR-RES > 100 µM | PC-3 > 100 µM | SF-539 > 100 µM | SK-MEL-28 > 100 µM | SK-OV-3 > 100 µM | SNB-75 > 100 µM | SR > 100 µM | T47D > 100 µM | U-251 > 100 µM

Clc1ccc(Nc2ncco2)cc1Cl
inactive: BT-549 > 10 µM | CAKI-1 > 10 µM | EKVX > 10 µM | HCT-116 > 10 µM | HOP-92 > 10 µM | K562 > 10 µM | MDA-MB-231 > 10 µM | MDA-N > 10 µM | MOLT-4 > 10 µM | NCI-H23 > 10 µM | NCI/ADR-RES > 10 µM | PC-3 > 10 µM | SF-539 > 10 µM | SK-MEL-28 > 10 µM | SK-OV-3 > 10 µM | SNB-75 > 10 µM | SR > 10 µM | T47D > 10 µM | U-251 > 10 µM

COc1ccc(OC)c(C[P+](c2ccccc2)(c2ccccc2)c2ccccc2)c1
inactive: BT-549 2.06 µM | CAKI-1 23.4 µM | EKVX 10.6 µM | MDA-MB-231 3.27 µM | MOLT-4 3.42 µM | NCI-H23 2.1 µM | NCI/ADR-RES > 100 µM | PC-3 1.57 µM | SF-539 3.82 µM | SK-MEL-28 3.26 µM | SK-OV-3 2.58 µM | SNB-75 3.71 µM | T47D 2.87 µM
active: HCT-116 1.02 µM | HOP-92 0.792 µM | K562 0.445 µM | MDA-N 0.753 µM | SR 0.601 µM

COC(=O)CN1c2nc(C#N)c(C#N)nc2N(CC(=O)OC)c2nc(C#N)c(C#N)nc21
inactive: BT-549 4.78 µM | EKVX 4.47 µM | HCT-116 1.58 µM | HOP-92 1.87 µM | K562 1.51 µM | MDA-MB-231 6.73 µM | MDA-N 3.53 µM | NCI-H23 2.99 µM | NCI/ADR-RES 18.7 µM | PC-3 4.15 µM | SF-539 7.11 µM | SK-MEL-28 3.74 µM | SK-OV-3 15.3 µM | SNB-75 14 µM | SR 2 µM | T47D 2.35 µM | U-251 6.81 µM
active: CAKI-1 0.54 µM | MOLT-4 0.479 µM

CC(=O)CC(=O)N1CCOC1=O
inactive: BT-549 > 10 µM | CAKI-1 > 10 µM | EKVX > 10 µM | HCT-116 > 10 µM | HOP-92 > 10 µM | K562 > 10 µM | MDA-MB-231 > 10 µM | MDA-N > 10 µM | MOLT-4 > 10 µM | NCI-H23 > 10 µM | NCI/ADR-RES > 10 µM | PC-3 > 10 µM | SF-539 > 10 µM | SK-MEL-28 > 10 µM | SK-OV-3 > 10 µM | SNB-75 5.26 µM | SR > 10 µM | T47D > 10 µM | U-251 > 10 µM

COC(CNC(=O)C(C)NC(=O)CCc1ccccc1)OC (centres undefined)
inactive: BT-549 > 100 µM | CAKI-1 > 100 µM | EKVX > 100 µM | HCT-116 > 100 µM | HOP-92 > 100 µM | K562 > 100 µM | MDA-MB-231 > 100 µM | MDA-N > 100 µM | MOLT-4 > 100 µM | NCI-H23 > 100 µM | NCI/ADR-RES > 100 µM | PC-3 > 100 µM | SF-539 > 100 µM | SK-MEL-28 > 100 µM | SK-OV-3 > 100 µM | SNB-75 > 100 µM | SR > 100 µM | T47D > 100 µM | U-251 > 100 µM

O=c1oc2ccccc2cc1-c1nc2ccc([N+](=O)[O-])cc2o1
inactive: BT-549 > 100 µM | CAKI-1 > 100 µM | EKVX > 100 µM | HCT-116 > 100 µM | HOP-92 > 100 µM | K562 > 100 µM | MDA-MB-231 > 100 µM | MDA-N > 100 µM | MOLT-4 > 100 µM | NCI-H23 > 100 µM | NCI/ADR-RES > 100 µM | PC-3 > 100 µM | SF-539 65.2 µM | SK-MEL-28 > 100 µM | SK-OV-3 > 100 µM | SNB-75 > 100 µM | SR > 100 µM | T47D > 100 µM | U-251 > 100 µM

CC(C)C1C(=O)N2CCCC2C2(O)OC(NC(=O)C3C=C4c5cccc6[nH]cc(c56)CC4N(C)C3)(C(C)C)C(=O)N12 (centres undefined)
inactive: BT-549 25.4 µM | CAKI-1 16.7 µM | EKVX 19.5 µM | HCT-116 17.9 µM | HOP-92 14.2 µM | MDA-MB-231 15.9 µM | MDA-N 25 µM | MOLT-4 17 µM | NCI-H23 26.9 µM | NCI/ADR-RES 21.1 µM | PC-3 21.1 µM | SF-539 19.8 µM | SK-MEL-28 25.5 µM | SNB-75 15.3 µM | SR 32.4 µM | T47D 47.6 µM | U-251 26.4 µM

CCC(=O)Nc1cccc(/N=C/c2ccc(OC(=O)/C=C\c3ccccc3)cc2)c1
inactive: BT-549 37 µM | CAKI-1 > 75 µM | EKVX 52.1 µM | HCT-116 > 75 µM | HOP-92 35.2 µM | K562 39.3 µM | MDA-MB-231 73.3 µM | MDA-N 58.6 µM | MOLT-4 27 µM | NCI-H23 > 75 µM | NCI/ADR-RES > 75 µM | PC-3 67 µM | SF-539 14.8 µM | SK-MEL-28 61.4 µM | SK-OV-3 > 75 µM | SNB-75 12.3 µM | SR 54.7 µM | T47D 8.26 µM

CCOC(=O)c1cnc2[nH]ccn2c1=O
inactive: BT-549 > 10 µM | CAKI-1 > 10 µM | EKVX > 10 µM | HCT-116 > 10 µM | HOP-92 > 10 µM | K562 > 10 µM | MDA-MB-231 > 10 µM | MDA-N > 10 µM | MOLT-4 > 10 µM | NCI-H23 > 10 µM | NCI/ADR-RES > 10 µM | PC-3 > 10 µM | SF-539 > 10 µM | SK-MEL-28 > 10 µM | SK-OV-3 > 10 µM | SNB-75 > 10 µM | SR > 10 µM | T47D > 10 µM | U-251 > 10 µM

CC(=O)OCC1OC(n2cnc(C(N)=S)c2N)C(OC(C)=O)C1OC(C)=O (centres undefined)
inactive: BT-549 > 100 µM | CAKI-1 > 100 µM | HCT-116 > 100 µM | HOP-92 > 100 µM | MDA-MB-231 > 100 µM | MDA-N > 100 µM | MOLT-4 > 100 µM | NCI-H23 > 100 µM | NCI/ADR-RES > 100 µM | PC-3 > 100 µM | SF-539 > 100 µM | SK-MEL-28 > 100 µM | SK-OV-3 > 100 µM | SNB-75 > 100 µM | SR > 100 µM | T47D > 100 µM | U-251 > 100 µM

COC(=O)c1ccccc1/C=C1/Cc2cccc(C)c2C1=O
inactive: BT-549 93.8 µM | CAKI-1 69.3 µM | EKVX > 100 µM | HCT-116 > 100 µM | HOP-92 31.8 µM | K562 > 100 µM | MDA-MB-231 > 100 µM | MDA-N > 100 µM | MOLT-4 > 100 µM | NCI-H23 > 100 µM | NCI/ADR-RES > 100 µM | PC-3 > 100 µM | SF-539 > 100 µM | SK-MEL-28 > 100 µM | SK-OV-3 > 100 µM | SNB-75 35.4 µM | SR > 100 µM | T47D 42.5 µM | U-251 31 µM

CC(=O)Oc1ccc(/C=C/C(=O)OCCCOC(=O)/C=C/c2ccc(OC(C)=O)c(OC(C)=O)c2)cc1OC(C)=O
inactive: BT-549 > 100 µM | CAKI-1 > 100 µM | EKVX > 100 µM | HCT-116 58.1 µM | HOP-92 > 100 µM | K562 > 100 µM | MDA-MB-231 > 100 µM | MDA-N > 100 µM | MOLT-4 > 100 µM | NCI-H23 > 100 µM | NCI/ADR-RES > 100 µM | PC-3 > 100 µM | SF-539 > 100 µM | SK-MEL-28 > 100 µM | SK-OV-3 > 100 µM | SNB-75 > 100 µM | SR > 100 µM | T47D > 100 µM | U-251 > 100 µM

O=C(O)COc1cc(-c2ccccc2F)nc2cc3c(cc12)OCO3
inactive: BT-549 98.6 µM | CAKI-1 > 100 µM | EKVX > 100 µM | HCT-116 > 100 µM | HOP-92 61.8 µM | K562 > 100 µM | MDA-MB-231 > 100 µM | MDA-N > 100 µM | MOLT-4 > 100 µM | NCI-H23 > 100 µM | NCI/ADR-RES > 100 µM | PC-3 > 100 µM | SF-539 > 100 µM | SK-MEL-28 > 100 µM | SK-OV-3 > 100 µM | SNB-75 > 100 µM | SR > 100 µM | T47D > 100 µM | U-251 > 100 µM

NC(=O)C1CCCN1C(=O)N(CCCl)N=O (centres undefined)
inactive: BT-549 > 100 µM | CAKI-1 > 100 µM | EKVX > 100 µM | HCT-116 > 100 µM | HOP-92 > 100 µM | K562 > 100 µM | MDA-MB-231 > 100 µM | MDA-N > 100 µM | MOLT-4 > 100 µM | NCI-H23 > 100 µM | NCI/ADR-RES > 100 µM | PC-3 > 100 µM | SF-539 > 100 µM | SK-MEL-28 > 100 µM | SK-OV-3 > 100 µM | SNB-75 14.9 µM | SR > 100 µM | T47D > 100 µM | U-251 > 100 µM
